This is an account of results in ChEMBL document CHEMBL4152286, “3'-O-Substituted 5-(perylen-3-ylethynyl)-2'-deoxyuridines as tick-borne encephalitis virus reproduction inhibitors” (Eur J Med Chem, 2018).

Data set [1] deals with Tick-borne encephalitis virus. Description: Antiviral activity against TBEV Absettarov infected in PEK cells assessed as plaque reduction preincubated for 1 hr followed by overlaying with 1.26% methylcellulose and measured after 6 days by gentian violet staining-based assay. The class given is functional, organism-based.
Data set [2] in a line: Cytotoxicity against PEK cells after 24 hrs by microscopic method. The class given is cell-based, Sus scrofa. To be noted: pig.
Data set [3] in a line: Cytotoxicity against PEK cells after 7 days by microscopic method. The format is cell-based, Sus scrofa. To be noted: pig.
A short description of data set [4]: Solubility of compound in 5% DMSO by UV-Vis spectrophotometric method. The class given is physicochemical.
Data set [5] can be described thus: Solubility of compound in 15% DMSO by UV-Vis spectrophotometric method. The class given is physicochemical.

Values after ≈ are worked out from the molar mass of the structure shown.

In the case of `O=c1[nH]c(=O)n([C@H]2C[C@H](OCn3cc(CCCCO)nn3)[C@@H](CO)O2)cc1C#Cc1ccc2c3cccc4cccc(c5cccc1c52)c43`, in data set [1], the EC50 (usually the concentration that produces a half-maximal response) is 0.023 µM. Moreover, in data set [2], the CC50 – broadly, the concentration giving 50% cytotoxicity – at 24 h was more than 50 µM. Further, in data set [3], the CC50 at 168 h is more than 50 µM.

In the case of `O=c1[nH]c(=O)n([C@H]2C[C@H](OCn3cc(CCCO)nn3)[C@@H](CO)O2)cc1C#Cc1ccc2c3cccc4cccc(c5cccc1c52)c43`, the EC50 in data set [1] stood at 0.037 µM. For the same molecule, in data set [2], the CC50 at 24 h was more than 50 µM. In data set [3], the half-maximal cytotoxic concentration (CC50) at 168 h is more than 50 µM.

Turning to `O=c1[nH]c(=O)n([C@H]2C[C@H](OCn3cc(CCO)nn3)[C@@H](CO)O2)cc1C#Cc1ccc2c3cccc4cccc(c5cccc1c52)c43`, the EC50 in data set [1] is 0.05 µM. For the same molecule, the CC50 at 24 h in data set [2] is more than 50 µM. Moreover, the 50% cytotoxic concentration (CC50) at 168 h in data set [3] was more than 50 µM.

Turning to `O=c1[nH]c(=O)n([C@H]2C[C@H](OCn3cc(CO)nn3)[C@@H](CO)O2)cc1C#Cc1ccc2c3cccc4cccc(c5cccc1c52)c43`, the EC50 in data set [1] turned out to be 0.03 µM. The molecule further yielded a CC50 at 24 h in data set [2] of more than 50 µM. Moreover, the cytotoxic concentration (CC50) at 168 h in data set [3] was more than 50 µM.

As to `CSCO[C@H]1C[C@H](n2cc(C#Cc3ccc4c5cccc6cccc(c7cccc3c74)c65)c(=O)[nH]c2=O)O[C@@H]1CO`, the 50% effective concentration (EC50) in data set [1] worked out at 0.0077 µM. In addition, the cytotoxic concentration (CC50) at 24 h in data set [2] was more than 50 µM. In data set [3], this molecule returned a half-maximal cytotoxic concentration (CC50) at 168 h of more than 50 µM. In addition, the solubility (usually the dissolved amount per volume that the medium holds) in data set [4] worked out at 150 µM (≈ 84.4 µg/mL).

On to `O=c1[nH]c(=O)n([C@H]2C[C@H](O)[C@@H](CO)O2)cc1C#Cc1ccc2c3cccc4cccc(c5cccc1c52)c43`, for which the solubility in data set [5] was 7.8 µM (≈ 3.92 µg/mL). This lies in the single-digit micromolar range.

With `[N-]=[N+]=NCO[C@H]1C[C@H](n2cc(C#Cc3ccc4c5cccc6cccc(c7cccc3c74)c65)c(=O)[nH]c2=O)O[C@@H]1CO`, the concentration for a half-maximal effect (EC50) in data set [1] came to 0.0054 µM. Moreover, the cytotoxic concentration (CC50) at 24 h in data set [2] is more than 50 µM. Moreover, the CC50 at 168 h in data set [3] was determined as 35 µM. The solubility in data set [4] was determined as 680 µM (≈ 379 µg/mL).
